Here are results for 2 compounds from patent publication US12282013B2, “Ex vivo methods of screening for, and characterizing, cardiac therapeutics using preloaded cardiac tissues” (NOVOHEART INTERNATIONAL LIMITED, priority 2018, dated 2025).

Assay [1] deals with human ventricular cardiac organoid chamber (hvCOC). Kind of assay: hvCOC pressure-volume / developed pressure assay with preload. The class given is cell-based. The following applies: for area in the pressure-volume loops: absence of preload. The method, then: The hvCOC was made by a similar approach: Ten million hESC-vCMs and 1 million human foreskin fibroblasts were mixed with 1650 μl collagen gel (same relative composition as described above for hvCTS). The mixture was then cast into a 13-mm diameter cavity in a 2% agarose gel. A modified 6-Fr silicone balloon Foley catheter (Cook Medical) was then inflated and placed into the center of the bioreactor to form the inner boundary of the hvCOC. An 8 mm porous polyethylene ring (Fisher Scientific) and a 6 mm rubber ring were placed on top of the catheter to provide an hvCOC anchor. The polyethylene ring, rubber ring and the catheter were held by a metal tube with 3.9 mm outer diameter. The cell mixture was allowed to solidify for 2 hours in a 37° C., 5% CO2 incubator. Then, the solidified cell mixture was fed with 7 ml DMEM medium (high glucose) supplemented with 10% newborn calf serum. After 24 hours, the medium was aspirated and the agarose gel was removed. Twenty ml of medium was replenished and half of the medium was changed every 2 days. Further description of the hvCOC is provided in Example 5.
Human ventricular Cardiac Organoid Chamber (hvCOC) behavior was measured on day 10 post-fabrication. First, the catheter was deflated and removed. Then, the culture medium was replaced by phenol red-free DMEM (with 25 mM glucose and 25 mM HEPES). Rubber tubing was then filled with medium and used to connect the metal tube of the hvCOC apparatus to a medium tank. The hvCOC was electrically paced at 1.5 Hz (5V/cm) and the pressure-volume change resulting from the paced contractions was recorded for 30 seconds. Pressure was measured by a pressure sensor (Millar) placed inside the hvCOC, and associated area change of the hvCOC was captured by high-speed camera (Allied Vision). The medium tank level was then adjusted from 0 mm (relative to medium level of that in the hvCOC bioreactor), to 2.5, 5 and 7.5 mm above the medium level (representing 0, 2.5, 5 and 7.5 mm H2O preload). The measurements at all 4 preloads (0, 2.5, 5 and 7.5 mm H2O) were then repeated at each dose (0.01 and 0.1 μM) of levosimendan after a 5-minute incubation period.

Assay [2] has as its system human ventricular cardiac tissue strip (hvCTS). In words: hvCTS contractile force assay, unstretched, 1-Hz pacing. The following applies: hvCTS paced at 1 Hz, increasing concentrations, responses described as blunted. The class given is cell-based. The method, then:
Seventy-two hours after dissociation, the hvCTS was made by mixing 1.3 million hESC-vCMs and 0.13 million human foreskin fibroblasts, together with 110 μl collagen gel comprising 1.67 mg/ml collagen and […] Matrigel. The cell mixture was then cast into a PDMS mold with two pillars and allowed to solidify for 2 hours in a 37° C., 5% CO2 incubator. Then, the cell mixture was fed with 7 ml DMEM medium (high glucose) supplemented with 10% newborn calf serum. Half of the medium was changed every 2 days.
On day 17 post-fabrication, human ventricular Cardiac Tissue Strips (hvCTS) were transferred from their molds and hooked to the force transducer unit and motor unit of an isolated muscle bath system (Aurora Scientific). The length of the hooked tissue was then adjusted to reach minimal developed tension, which was defined as the original length (Lo, or 0% Lmax) of the tissue. The hvCTS was then incubated in the bath at 37° C. for 10 minutes. Next, the hvCTS was electrically paced (at 5V/cm) at 1 Hz frequency, and stretched from 0 to 50% strain in 2.5% increments every 20 seconds. Recordings were made using Dynamic Muscle Control software (Aurora Scientific). The contractile parameters at each % strain, such as developed force, contractile rate and relaxation rate, were analyzed by Clampfit (Molecular Devices). The length with the maximum developed force was defined as Lmax. […]

Consider `CC(C)NCC(O)c1ccc(O)c(O)c1` (centres unmarked) [isoproterenol], for which the “area in the pressure-volume loops” value in assay [1] (hvCOC) is “increase in area in the pressure-volume loops”. Also, the contractile force entry in assay [2] is on record as “trend of increasing contractile force”.

In the case of `C[C@@H]1CC(=O)NN=C1c1ccc(NN=C(C#N)C#N)cc1` [levosimendan], the “increase in developed pressure” value in assay [1] (hvCOC, 5 mmH2O preload, 0.1 μM) is given as “approximately 50%”. Besides, in assay [1] (hvCOC, 7.5 mmH2O preload), the “developed pressure, dose dependence” value was “did not show any significant dose-dependent increase”. The “area in the pressure-volume loops” value in assay [1] (hvCOC) is reported as “increase in area in the pressure-volume loops”. Further, in assay [1] (hvCOC, no preload (0 mmH2O), 1 μM), the developed pressure result was “no increase in developed pressure”. For the same compound, the “response of hvCOC (developed pressure)” value in assay [1] (preload increased to 2.5 or 5 mmH2O) is listed as “greatly enhanced the response”. Also, in assay [2], the contractile force result is given as “trend of increasing contractile force”.
